The source of these data is patent US7569711B2, “Enone cancer therapeutics” (Cornell Univeristy, priority 2002, dated 2009).

Where two headings read alike, the source gives them in different places.

The target in test [1] is T1, human erythrocyte GlxI (Homo sapiens, UniProt Q04760).
T1 construct: Kinetic studies with human erythrocyte GlxI; from tissue; host or cells: human erythrocytes
T1 sequence (Q04760 2-184 limits assumed): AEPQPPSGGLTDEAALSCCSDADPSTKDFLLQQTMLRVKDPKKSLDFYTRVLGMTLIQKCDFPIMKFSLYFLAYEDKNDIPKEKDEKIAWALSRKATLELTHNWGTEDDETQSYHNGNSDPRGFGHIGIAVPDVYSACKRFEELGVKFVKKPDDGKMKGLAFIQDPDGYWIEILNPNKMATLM
Description: kinetic studies with human erythrocyte GlxI (competitive inhibition). It counts as biochemical. The conditions noted are these: sodium phosphate buffer, pH 7.0, 25° C., read-out: dissociation constant Ki. How it is done:
In each kinetic run, the concentration of free GSH was maintained at 0.2 mM by varying the total concentration of GSH and methylglyoxal on the basis of the dissociation constant of the hemithioacetal (Kdiss=2.2 mM). Conditions: 50 mM phosphate buffer, pH 7.0, 25° C.
To investigate the mechanism of formation of 2b, the nonenzymatic reaction of 1b with GSH was monitored spectrophotometrically, and followed a simple first-order decay (FIG. 2, trace A). No intermediate species was detectable. However, in the presence of human placental glutathione transferase (GSTP 1-1) (Predominantly the pi or P1-1 isoform, purchased from Sigma Chemical Company. Salts and free GSH were removed by ultrafiltration. Units of transferase activity were determined using 1-chloro-2,4-dinitrobenzene as substrate (Mannervik, B.; Danielson, U. H. CRC Critical Reviews in Biochemistry 1988, 23, 283-337). The reaction rate profile conformed to a double exponential decay, composed of a rapid, enzyme-dependent, initial phase involving 1b followed by a slower enzyme-independent first-order phase (FIG. 2, traces B and C).

The target in a further test is T2, hGSTP1-1 (Homo sapiens, UniProt P09211).
T2 construct: purchased Sigma Chemical Company; host or cells: human placenta
T2 sequence (P09211 2-210 limits assumed): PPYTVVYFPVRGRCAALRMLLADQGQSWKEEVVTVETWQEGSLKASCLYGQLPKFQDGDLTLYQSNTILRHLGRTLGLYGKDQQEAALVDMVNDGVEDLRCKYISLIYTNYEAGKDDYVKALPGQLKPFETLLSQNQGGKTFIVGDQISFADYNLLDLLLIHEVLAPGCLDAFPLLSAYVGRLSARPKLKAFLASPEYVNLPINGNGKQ
Description: initial rates of reaction with hGSTP1-1 (substrate kinetics). The test is classed as biochemical. To be noted: pH 6.5, [GSH]=1 mM, 25° C.; estimated. How it is done: Initial rates of reaction of 1a and 1b with hGSTP1-1 were determined from reciprocal plots of initial velocities (ΔOD235/min), versus [substrate] in buffered solution at pH 6.5, with [GSH]=1 mM (25° C.). Under those conditions, the enzyme-catalyzed GSH addition became rate determining (<0.01 units of transferase in the assay cuvettes).

Test [2] relates to murine and human tumors in culture. The conditions noted are these: range of different murine and human tumors in culture; read-out: IC50 antitumor activity; cited from earlier work.
Test [3] concerns the target T1, human erythrocyte GlxI. The conditions noted are these: competitive; previously reported; read-out: dissociation constant Ki; cited from earlier work.

As usually defined, the Ki is the equilibrium dissociation constant of an inhibitor or competing ligand from its target. As to `N[C@@H](CCC(=O)N[C@@H](CSCC1=CCCCC1=O)C(=O)NCC(=O)O)C(=O)O` [Compound 2b], the Ki at human erythrocyte GlxI [1] was 107 ± 0.1 µM. As a reminder, the IC50 is the concentration at which inhibition is half-maximal. As for `C/C=C/C(=O)OCC1=C[C@@H](O)[C@@H](O)[C@@H](O)C1=O` [Compound 1a, 2-crotonyloxymethyl-(4R, 5R, 6R)-4,5,6-trihydroxy-2-cyclohexenone], on hGSTP1-1, the “kcat/Km, fold lower than that of 1b” value was approximately 8.3 fold. The IC50 in test [2] was 3 to 44 µM. Consider `NC(CCC(=O)NC(CSCC1=CC(O)C(O)C(O)C1=O)C(=O)NCC(=O)O)C(=O)O` (stereo not shown) [Compound 2a], for which, on human erythrocyte GlxI [3], the Ki is 183 ± 6 µM.
